# Measured values: patent publication US20150366831A1, “THROMBORESISTANT/BACTERICIDAL S-NITROSO-N-[…] (SNAP)-DOPED NITRIC OXIDE RELEASE POLYMERS WITH ENHANCED STABILITY” (THE REGENTS OF THE UNIVERSITY OF MICHIGNA, priority 2013, published 2015)
# Assay: SNAP/E2As dry storage stability study
# Assay type: physicochemical
# Conditions: SNAP doped in E2As polymer
# Experimental: The stability of SNAP doped in the E2As polymer during dry storage was also evaluated. SNAP incorporated in E2As can potentially undergo thermal or photochemical decomposition during storage, thus limiting the available NO release capacity at the time of use. Therefore, 10 wt % SNAP/E2As films were stored with desiccant in the freezer in the dark, dry in the dark or in ambient light with desiccant at room temperature, and dry in the dark with desiccant at 37° C. and 50° C. These stability studies were conducted in a similar manner as the cumulative NO release experiments, where films were dissolved in DMAc to determine the amount of SNAP remaining in the polymer at various time points (as described herein). […] After 2 months, for example, the 10 wt % SNAP films stored in the freezer (−20° C.) in the dark maintain about 96% of the initial SNAP species, compared to 89% for films stored at room temperature and 82% for films stored at 37° C. (see FIG. 8). […]
# SNAP/E2As films (consisting of 10 wt % SNAP) were placed under the following conditions in vials with desiccant: room temperature with ambient light, room temperature in dark, 37° C. in dark, and in the freezer (−20° C.) in dark. At various time points over a 4 month period, films were dissolved in DMAc, and the UV-Vis spectra was recorded to determine the % SNAP remaining in the film, as compared to the initial 10 wt % SNAP.
smiles,measurement,value
"CC(=O)N[C@H](C(=O)O)C(C)(C)SN=O (racemic) [SNAP, S-nitroso-N-acetylpenicillamine]",Time for which SNAP is stable in the Elast-Eon E2As polymer,at least 4 months
